We go through eight compounds from ChEMBL document CHEMBL1201862, “PubChem BioAssay data set” (2004).

Values joined by “and” are separate entries in the source; they are usually repeats but may differ in a detail not shown here. Equal entries are not always repeated.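 A five-concentration, 48-hour dose response in 96-well plates underlies each endpoint, interpolated linearly between surrounding concentrations. GI50: concentration for 50% inhibition of growth.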 Active and inactive are the calls of the source. Cut-off read from the data, not from the text of the source: active = GI50 up to about 1.1 µM and inactive = higher.

Among the test systems are MOLT-4; NCI-H23; UACC-62; SK-MEL-2; RXF 393; DU-145; UACC-257; KM12; SF-295; OVCAR-8; SNB-75; COLO 205; MDA-MB-231; ACHN; A498; SF-539; HT-29; HCT-15; K562; LOX IMVI.
Holding throughout (assay): NCI-60 cell line screen, 48 h

As for `COc1ccc(-c2[nH]c(=O)n(C3OC(CO)C(O)C(O)C3O)c(=O)c2C#N)cc1` (stereo not given), the GI50 in the assay with MOLT-4, with NCI-H23, in the assay on UACC-62, in the assay on SK-MEL-2, in the assay on RXF 393 and in the assay with DU-145 was > 100 µM (inactive) each time. Further, the GI50 with UACC-257, in the assay on KM12, in the assay with SF-295, in the assay on OVCAR-8, with SNB-75 and with COLO 205 was > 100 µM (inactive) in each case. Also, the GI50 with MDA-MB-231 was > 100 µM (inactive) and 81.5 µM (inactive); in the assay with ACHN, > 100 µM (inactive); in the assay on A498, > 100 µM (inactive); in the assay on SF-539 it was > 100 µM (inactive); in the assay with HT-29, > 100 µM (inactive); in the assay on HCT-15, above 100 µM. Besides, in the assay on K562, the GI50 is > 100 µM (inactive).

For `CC1C(=O)N=C2C(=CN(Cc3ccccc3)c3ccccc32)C(=O)N1C` (stereo not given), the GI50 in the assay on NCI-H23, in the assay with UACC-62, in the assay with SK-MEL-2, in the assay with RXF 393, in the assay on DU-145 and in the assay with UACC-257 was > 100 µM (inactive) throughout. In addition, the GI50 in the assay with KM12, with OVCAR-8, in the assay on SNB-75, with COLO 205, in the assay on MDA-MB-231 and in the assay on ACHN was > 100 µM (inactive) each time. Moreover, the GI50 is > 100 µM (inactive) in the assay on A498; > 100 µM (inactive) in the assay with SF-539; > 100 µM (inactive) in the assay on HT-29; above 100 µM with HCT-15; 1.44 µM (inactive) in the assay on K562.

For `CC12CCC(CC1=O)C2(C)CCC(N)=O` (stereo not given), the GI50 in the assay with MOLT-4, with NCI-H23, in the assay on UACC-62, with SK-MEL-2, with RXF 393 and in the assay on DU-145 was > 100 µM (inactive) in each case. Besides, the GI50 in the assay with UACC-257, with KM12, with SF-295, in the assay with OVCAR-8, in the assay on COLO 205 and with MDA-MB-231 was > 100 µM (inactive) in each case. Moreover, the GI50 with ACHN was > 100 µM (inactive); with A498, > 100 µM (inactive); in the assay on HT-29, > 100 µM (inactive); with HCT-15, above 100 µM; in the assay on K562 it was > 100 µM (inactive).

As to `C[N+](C)(CCNc1ccc(NCC[N+](C)(C)Cc2ccc([N+](=O)[O-])cc2)c2c1C(=O)c1ccccc1C2=O)Cc1ccc([N+](=O)[O-])cc1`, the GI50 with MOLT-4, with NCI-H23, in the assay with UACC-62, with SK-MEL-2, in the assay with DU-145 and with UACC-257 was > 100 µM (inactive) in each case. The GI50 with KM12, with SF-295, with OVCAR-8, in the assay with SNB-75, in the assay with COLO 205 and in the assay with MDA-MB-231 was > 100 µM (inactive) each time. Moreover, the GI50 in the assay on ACHN is > 100 µM (inactive); in the assay on A498, > 100 µM (inactive); with SF-539, > 100 µM (inactive); in the assay with LOX IMVI, > 100 µM (inactive); in the assay with HT-29, > 100 µM (inactive); in the assay with HCT-15 it was above 100 µM. In the assay with K562, the GI50 was 70.3 µM (inactive).

For the compound `Cn1c2ccccc2c2cc(N3CCCC3)c3c(c21)C(=O)N(c1ccccc1)C3=O`, the GI50 with MOLT-4 is > 100 µM (inactive); in the assay with NCI-H23, > 100 µM (inactive); with UACC-62 it was 56.8 µM (inactive); in the assay with RXF 393 it was 32.5 µM (inactive); in the assay with DU-145, > 100 µM (inactive); with UACC-257 it was > 100 µM (inactive). In addition, the GI50 in the assay on KM12 is > 100 µM (inactive); in the assay with SF-295 it was > 100 µM (inactive); in the assay on OVCAR-8, > 100 µM (inactive); in the assay on SNB-75, 38.4 µM (inactive); with COLO 205, > 100 µM (inactive); with MDA-MB-231 it was 66.4 µM (inactive). Further, the GI50 in the assay on ACHN is > 100 µM (inactive); with A498 it was > 100 µM (inactive); in the assay on LOX IMVI it was > 100 µM (inactive); in the assay with HT-29 it was > 100 µM (inactive); in the assay on HCT-15 it was above 100 µM; in the assay on K562, > 100 µM (inactive).

For `CN(Cc1cnc2nc(N)nc(N)c2n1)c1ccc(C(=O)NCCS(=O)(=O)O)cc1`, the GI50 in the assay with MOLT-4, with NCI-H23, in the assay on UACC-62, in the assay on SK-MEL-2, in the assay on DU-145 and with UACC-257 was > 100 µM (inactive) each time. Further, the GI50 in the assay with KM12, with SF-295, in the assay with OVCAR-8, in the assay with SNB-75, with COLO 205 and with MDA-MB-231 was > 100 µM (inactive) in each case. In addition, the GI50 in the assay on ACHN is > 100 µM (inactive); with A498, > 100 µM (inactive); in the assay on SF-539, > 100 µM (inactive); in the assay with LOX IMVI, > 100 µM (inactive); in the assay with HT-29, > 100 µM (inactive); in the assay with HCT-15, above 100 µM. Besides, the GI50 in the assay with K562 was > 100 µM (inactive).

On to `CC(C)(Cl)C(Br)CC/C(=C/CBr)CBr.CC(C)(Cl)C(Br)CC/C(=C\CBr)CBr` (stereo not given), for which the GI50 in the assay with MOLT-4 was 1.14 µM (inactive); in the assay on NCI-H23 it was 2.83 µM (inactive); in the assay on UACC-62, 5.01 µM (inactive); in the assay on SK-MEL-2, 4.98 µM (inactive); with RXF 393, 4.22 µM (inactive); in the assay on DU-145 it was 8.05 µM (inactive). Besides, the GI50 in the assay on UACC-257 was 4.37 µM (inactive); in the assay with KM12, 2.36 µM (inactive); with SF-295, 3.71 µM (inactive); in the assay with OVCAR-8 it was 3.01 µM (inactive); in the assay with SNB-75 it was 2.48 µM (inactive); in the assay on COLO 205, 2.32 µM (inactive). The GI50 in the assay on MDA-MB-231 was 1.89 µM (inactive); in the assay on ACHN it was 3.88 µM (inactive); with A498, 8.63 µM (inactive); in the assay with SF-539, 2.47 µM (inactive); in the assay on HT-29, 1.95 µM (inactive); in the assay on HCT-15, 1.95 µM. In addition, the GI50 in the assay with K562 is 1.71 µM (inactive).

On to `CC(C)C1=CC23CCC4C(C)(C(=O)O)CCCC4(C)C2CC1C(C(=O)O)C3C(=O)O` (stereo not given), for which the GI50 with MOLT-4, with NCI-H23, in the assay on UACC-62, in the assay with SK-MEL-2, in the assay with RXF 393 and with DU-145 was > 100 µM (inactive) each time. The GI50 in the assay with KM12, with SF-295, in the assay with OVCAR-8, with SNB-75, with MDA-MB-231 and in the assay with ACHN was > 100 µM (inactive) in each case. Besides, the GI50 was > 100 µM (inactive) with A498; > 100 µM (inactive) in the assay with LOX IMVI; > 100 µM (inactive) in the assay with HT-29; above 100 µM with HCT-15; > 100 µM (inactive) in the assay on K562.
